Legend:
[1] = test system: iPSC-derived cortical neurons; test: Dendritic arborization analysis (dendrite length), confocal imaging; format: cell-based, human
Protocol: FIG. 7. Analysis of dendritic arborization. Dendritic arborization was analyzed using confocal microscopy in samples treated with Bupropion. Images for dendritic arborization were acquired with a 20× objective in z-stacks and analyzed using Neurolucida software. iPSC differentiation into neurons-iPSCs were seeded at a density of 3×10^6 cells/well on a hESC-qualified Matrigel pre-coated 6-well plate and incubated at 37° C., 5% CO2 overnight. Differentiation was initiated the following day (day 0) after verifying that 100% confluency was reached. Differentiation media was added daily according to the following order: […]7 (day 15 onward) similar to a previously published protocol developed by for rapid differentiation to cortical neurons. The components of the described media, Q1-7, are provided in Appendix 1. Cells were assessed for differentiation efficiency and cell death on a daily basis. […] Neuronal and synaptic morphology was assessed using the Neurolucida software, pre- and post-synaptic marker analysis was performed using CellProfiler and total dendritic length was measured using Fiji software.

[2] = test system: iPSC-derived cortical neurons; test: Pre- and post-synaptic marker (Synapsin, PSD95) puncta and colocalization imaging analysis; format: cell-based, human; conditions: for intact synapses (colocalization of pre- and post-synaptic terminals), treated vs untreated: 7 days after treatment (Bupropion also 3 days)
Protocol: iPSC differentiation into neurons-iPSCs were seeded at a density of 3×10^6 cells/well on a hESC-qualified Matrigel pre-coated 6-well plate and incubated at 37° C., 5% CO2 overnight. Differentiation was initiated the following day (day 0) after verifying that 100% confluency was reached. Differentiation media was added daily according to the following order: […]7 (day 15 onward) similar to a previously published protocol developed by for rapid differentiation to cortical neurons. The components of the described media, Q1-7, are provided in Appendix 1. Cells were assessed for differentiation efficiency and cell death on a daily basis. On day 9, differentiated neurons were re-plated on either 96-well plates (destined for staining) or 12-well plates (destined for RNA extraction) that were coated with 15 μg/mL Poly-ornithine diluted in PBS (overnight incubation at 37° C.), followed by 1 μg/mL Laminin and 2 μg/mL Fibronectin diluted in PBS (overnight incubation at 37° C.): Neurons were first rinsed with pre-warmed PBS and 1 ml/well of Accutase was added for 35 minutes at 37° C., 5% CO2. DNAse1 (0.5 mg/mL) was then added for 10 additional minutes. 3 ml of pre-warmed Neurobasal media was added to each well and neurons were gently collected using a 5 ml […]. Wells were then verified for the presence of any remaining neurons. Neurons were spun down and resuspended in Q6 media. Neurons were seeded at a density of 150,000 cells/cm^2 placed back at 37° C. Following four hours of incubation, media was changed to Q6 media (150 μl per 96-well and 1 ml per 12-well). […] For dendritic arborization analysis, pre/post-synaptic markers and colocalization analysis; α-Syn, PSD95 and MAP2 primary antibodies were used. Following washes, fluorophore-coupled secondary antibodies were incubated in the blocking solution for 1 hour at room temperature. The cells were counter-stained with 4',6-diamidino-2-phenylindole (DAPI) for nuclei detection for 15 minutes at room temperature followed by washes with PBS. Imaging was performed using Nikon Spinning Disk Confocal microscope. For imaging of pre- and post-synaptic markers, images were acquired with a 100× objective in z-stacks. For dendritic arborization analysis, images were acquired with a 20× objective in z-stacks. For imaging of dendritic spines, during culture treatment described in materials and methods, cells were infected at Day 20 with human syn-GFP or mKate virus and stained for GFP or mKate. Cells were fixed as described at day 35 and stained with antibodies against GFP or mKate respectively. Images were acquired using the Nikon Confocal Alit with a 60× objective and a 2× digital zoom in z-stacks and using the Nikon spinning disk Microscope with a 100× objective in z-stacks. Neuronal and synaptic morphology was assessed using the Neurolucida software, pre- and post-synaptic marker analysis was performed using CellProfiler and total dendritic length was measured using Fiji software. Immunohistochemical examination was carried out on the induced neuronal cells.

CC(NC(C)(C)C)C(=O)c1cccc(Cl)c1 (stereo not drawn) [Bupropion, 3-Chloro-N-tert-butyl-β-keto-α-methylphenethylamin]
dendritic length, effect of treatment (significant decrease or not) ([1]; cells derived from non-responders): did not | dendritic length, effect of treatment ([1]; neurons derived from responders): significant decrease in dendritic length | density of post-synaptic terminals (PSD95 puncta), responders vs non-responders ([2]; after treatment): increase in density | intact synapses, responders vs non-responders ([2]; after treatment): increase | size of PSD95 puncta (perimeter), responders vs non-responders ([2]; at baseline and after treatment): reduced | levels of pre-synaptic terminals (Synapsin puncta), responders vs non-responders ([2]; both before and after treatment): significantly higher | pre-synaptic terminals (Synapsin puncta density), following treatment ([2]; both responders and non-responders): increase | Synapsin puncta perimeter size, effect of treatment ([2]; cells from non-responders): reduction in puncta perimeter size | Synapsin puncta perimeter size, effect of treatment ([2]; cells from responders): increase in puncta perimeter size | intact synapses (colocalization of pre- and post-synaptic terminals), treated vs untreated ([2]; neurons from non-responders): increased intact synapses | density of post-synaptic terminals (distance between PSD95 puncta), after vs before treatment ([2]; neurons from responders, 7 days after treatment): significantly increased | intact synapses (colocalization of pre- and post-synaptic terminals), treated vs untreated ([2]; neurons from responders): increased intact synapses | size of PSD95 puncta (perimeter), effect of treatment ([2]; responders and non-responders): no significant effect

From patent US20230094922A1, “METHODS OF THERAPEUTIC PROGNOSTICATION” (GENETIKAPLUS LTD., priority 2020, published 2023)
